# Patent publication US10300042B2, “Apremilast for the treatment of a liver disease or a liver function abnormality” (Celgene Corporation, priority 2014, dated 2019)
# Experiments:
# [1] = tested on: TNF-α; test: Inhibition of TNF-α production in PBMCs; type: cell-based; settings: PBMC
# Description: The test methods were as described in WO 03/080049; Muller et al., J. Med. Chem., 1996, 39:3238; and Muller et al., Bioorg. Med. Chem. Lett., 1999, 9:1625-30.
# [2] = tested on: Aspartate Aminotransferase; test: AST levels in PALACE 1, 2, and 3 clinical studies; type: in vivo, human
# Description: Apremilast was studied in Phase 3 trials in both psoriatic arthritis and psoriasis patient populations and a Phase 2 trial in rheumatoid arthritis patients on background methotrexate. […] The improvement in mild baseline liver function test abnormalities has been observed with apremilast daily use without any prescribed changes in physical activity, social or dietary habits. The majority of the patient populations in both the psoriatic arthritis and psoriasis studies were overweight with the mean BMI for subjects greater than or equal to 30, more than half were consuming alcoholic beverages regularly, approximately 60% were taking methotrexate at an average dose of […], and 70% were using non-steroidal anti-inflammatory drugs (NSAIDs). […] During the course of the study, there was observed a higher proportion of subjects in the apremilast treatment groups (both 20 mg BID and 30 mg BID) with normal LFTs (i.e. normal levels of ALT and AST) at subsequent placebo-controlled study visits at week 4, week 16, and week 24 (See Tables 1 to 10 from PALACE 1, 2, and 3 studies).
# [3] = tested on: Alanine Aminotransferase; test: ALT levels in RA-002 (rheumatoid arthritis); type: in vivo, human; settings: for ALT High to Normal, percent of patients / ALT Net Benefit / ALT Normal to High, percent of patients: end of treatment (week 16); for ALT High, % of patients / ALT Low, % of patients / ALT Normal, % of patients: Week 16
# Procedure: The improvement in mild baseline liver function test abnormalities has been observed with apremilast daily use without any prescribed changes in physical activity, social or dietary habits. During the course of the study, there was observed a higher proportion of subjects in the 30 mg BID apremilast treatment group with normal LFTs at subsequent placebo-controlled study visits at week 16. See Tables 17 to 24 from RA-002 studies.
# [4] = tested on: Aspartate Aminotransferase; test: AST levels in PSA-005 (psoriatic arthritis); type: in vivo, human; settings: for AST High to Normal, percent of patients / AST Net Benefit / AST Normal to High, percent of patients: end of treatment (week 24)
# Description: Apremilast was studied in a Phase 3 trial in patients with active psoriatic arthritis who have not been previously treated with disease-modifying antirheumatic drugs. […] The improvement in mild baseline liver function test abnormalities has been observed with apremilast daily use without any prescribed changes in physical activity, social or dietary habits. […] See Tables 25 to 34 from PSA-005 studies.
# [5] = Baseline High, Week 24, 20 mg BID
# [6] = Baseline High, Week 24, 30 mg BID
# [7] = Baseline Normal, Week 24, 20 mg BID
# [8] = Baseline Normal, Week 24, 30 mg BID
# [9] = Baseline Total, Week 24, 20 mg BID
# [10] = Baseline Total, Week 24, 30 mg BID
compound,measurement,setting,value
"CCOc1cc([C@@H](CS(C)(=O)=O)N2C(=O)c3cccc(NC(C)=O)c3C2=O)ccc1OC [Apremilast, (+)-2-[1-(3-ethoxy-4-methoxyphenyl)-2-methylsulfonylethyl]-4-acetylaminoisoindoline-1,3-dione]",IC50,[1],77 nM
same,"AST High to Normal, percent of patients","[2]; 20 BID, end of treatment",60.9%
same,AST Net Benefit,"[2]; 20 BID, end of treatment",32.6%
same,"AST Normal to High, percent of patients","[2]; 20 BID, end of treatment",5.0%
same,"AST High to Normal, Difference between Placebo and APR 30 BID","[2]; 30 BID, end of treatment",13.3%
same,"AST High to Normal, percent of patients","[2]; 30 BID, end of treatment",73.3%
same,AST Net Benefit,"[2]; 30 BID, end of treatment",48.9%
same,"AST Net Benefit, Difference between Placebo and APR 30 BID","[2]; 30 BID, end of treatment",23.9%
same,"AST Normal to High, Difference between Placebo and APR 30 BID","[2]; 30 BID, end of treatment",−6.4%
same,"AST Normal to High, percent of patients","[2]; 30 BID, end of treatment",3.8%
same,"AST High, % of patients",[2]; [5],39.1%
same,"AST Low, % of patients",[2]; [5],0.0%
same,"AST Normal, % of patients",[2]; [5],60.9%
same,"AST High, % of patients",[2]; [6],26.7%
same,"AST Low, % of patients",[2]; [6],0.0%
same,"AST Normal, % of patients",[2]; [6],73.3%
same,"AST High, % of patients",[2]; [7],5.0%
same,"AST Low, % of patients",[2]; [7],0.0%
same,"AST Normal, % of patients",[2]; [7],95.0%
same,"AST High, % of patients",[2]; [8],3.8%
same,"AST Low, % of patients",[2]; [8],0.0%
same,"AST Normal, % of patients",[2]; [8],96.2%
same,"AST High, % of patients",[2]; [9],6.8%
same,"AST Low, % of patients",[2]; [9],0.0%
same,"AST Normal, % of patients",[2]; [9],93.2%
same,"AST High, % of patients",[2]; [10],5.4%
same,"AST Low, % of patients",[2]; [10],0.0%
same,"AST Normal, % of patients",[2]; [10],94.6%
same,Baseline High AST: High %,"[2]; Week 4, 20 mg BID",38.6%
same,Baseline High AST: Normal %,"[2]; Week 4, 20 mg BID",61.4%
same,Baseline High AST: Normal % difference from Placebo,"[2]; Week 4, 20 mg BID",9%
same,Baseline High AST: High %,"[2]; Week 4, 30 mg BID",42.2%
same,Baseline High AST: Normal %,"[2]; Week 4, 30 mg BID",57.8%
same,Baseline High AST: Normal % difference from Placebo,"[2]; Week 4, 30 mg BID",5.4%
same,Baseline High AST: High %,"[2]; Week 16, 20 mg BID",38.5%
same,Baseline High AST: Normal %,"[2]; Week 16, 20 mg BID",61.5%
same,Baseline High AST: Normal % difference from Placebo,"[2]; Week 16, 20 mg BID",−4.3%
same,decrease in the number of patients with normal levels of AST compared to the placebo group,"[2]; Week 16, 20 mg BID, stated as a decrease",4.3%
same,Baseline High AST: High %,"[2]; Week 16, 30 mg BID",25.0%
same,Baseline High AST: Normal %,"[2]; Week 16, 30 mg BID",75.0%
same,Baseline High AST: Normal % difference from Placebo,"[2]; Week 16, 30 mg BID",9.2%
same,Baseline High AST: High %,"[2]; Week 24, 20 mg BID",44.4%
same,Baseline High AST: Normal %,"[2]; Week 24, 20 mg BID",55.6%
same,Baseline High AST: Normal % difference from Placebo,"[2]; Week 24, 20 mg BID",5.6%
same,Baseline High AST: High %,"[2]; Week 24, 30 mg BID",24.2%
same,Baseline High AST: Normal %,"[2]; Week 24, 30 mg BID",75.8%
same,Baseline High AST: Normal % difference from Placebo,"[2]; Week 24, 30 mg BID",25.8%
same,"ALT High to Normal, percent of patients",[3]; 20 BID,25.0%
same,ALT Net Benefit,[3]; 20 BID,14.3%
same,"ALT Normal to High, percent of patients",[3]; 20 BID,4.5%
same,"ALT High to Normal, percent of patients",[3]; 30 BID,66.7%
same,ALT Net Benefit,[3]; 30 BID,40.0%
same,"ALT Normal to High, percent of patients",[3]; 30 BID,3.1%
same,"ALT High to Normal, Difference between Placebo and APR 30 BID","[3]; 30 BID, week 16",0%
same,"ALT Net Benefit, Difference between Placebo and APR 30 BID","[3]; 30 BID, week 16",−26.7%
same,"ALT Normal to High, Difference between Placebo and APR 30 BID","[3]; 30 BID, week 16",3.1%
same,"ALT High to Normal, Difference between Placebo and APR 30 BID","[3]; 30 BID, week 16, listed as APR",0.0%
same,"ALT High, % of patients","[3]; Baseline High, 20 mg BID",75.0%
same,"ALT Low, % of patients","[3]; Baseline High, 20 mg BID",0.0%
same,"ALT Normal, % of patients","[3]; Baseline High, 20 mg BID",25.0%
same,"ALT High, % of patients","[3]; Baseline High, 30 mg BID",33.3%
same,"ALT Low, % of patients","[3]; Baseline High, 30 mg BID",0.0%
same,"ALT Normal, % of patients","[3]; Baseline High, 30 mg BID",66.7%
same,"ALT High, % of patients","[3]; Baseline Normal, 20 mg BID",4.5%
same,"ALT Low, % of patients","[3]; Baseline Normal, 20 mg BID",0.0%
same,"ALT Normal, % of patients","[3]; Baseline Normal, 20 mg BID",95.5%
same,"ALT High, % of patients","[3]; Baseline Normal, 30 mg BID",3.1%
same,"ALT Low, % of patients","[3]; Baseline Normal, 30 mg BID",0.0%
same,"ALT Normal, % of patients","[3]; Baseline Normal, 30 mg BID",96.9%
same,"ALT High, % of patients","[3]; Baseline Total, 20 mg BID",8.6%
same,"ALT Low, % of patients","[3]; Baseline Total, 20 mg BID",0.0%
same,"ALT Normal, % of patients","[3]; Baseline Total, 20 mg BID",91.4%
same,"ALT High, % of patients","[3]; Baseline Total, 30 mg BID",4.5%
same,"ALT Low, % of patients","[3]; Baseline Total, 30 mg BID",0.0%
same,"ALT Normal, % of patients","[3]; Baseline Total, 30 mg BID",95.5%
same,"AST High to Normal, percent of patients",[4]; 20 BID,60.0%
same,AST Net Benefit,[4]; 20 BID,37.5%
same,"AST Normal to High, percent of patients",[4]; 20 BID,2.0%
same,"AST High to Normal, percent of patients",[4]; 30 BID,75.0%
same,AST Net Benefit,[4]; 30 BID,60.0%
same,"AST Normal to High, percent of patients",[4]; 30 BID,2.1%
same,"AST High to Normal, Difference between Placebo and APR 30 BID","[4]; 30 BID, week 24",25%
same,"AST Net Benefit, Difference between Placebo and APR 30 BID","[4]; 30 BID, week 24",35.0%
same,"AST Normal to High, Difference between Placebo and APR 30 BID","[4]; 30 BID, week 24",−1.8%
same,"AST High to Normal, Difference between Placebo and APR 30 BID","[4]; 30 BID, week 24, listed as APR",25.0%
same,"AST High, % of patients",[4]; [5],40.0%
same,"AST Low, % of patients",[4]; [5],0.0%
same,"AST Normal, % of patients",[4]; [5],60.0%
same,"AST High, % of patients",[4]; [6],25.0%
same,"AST Low, % of patients",[4]; [6],0.0%
same,"AST Normal, % of patients",[4]; [6],75.0%
same,"AST High, % of patients",[4]; [7],2.0%
same,"AST Low, % of patients",[4]; [7],0.0%
same,"AST Normal, % of patients",[4]; [7],98.0%
same,"AST High, % of patients",[4]; [8],2.1%
same,"AST Low, % of patients",[4]; [8],0.0%
same,"AST Normal, % of patients",[4]; [8],97.9%
same,"AST High, % of patients",[4]; [9],3.2%
same,"AST Low, % of patients",[4]; [9],0.0%
same,"AST Normal, % of patients",[4]; [9],96.8%
same,"AST High, % of patients",[4]; [10],3.9%
same,"AST Low, % of patients",[4]; [10],0.0%
same,"AST Normal, % of patients",[4]; [10],96.1%
same,Baseline High AST: High %,"[4]; Week 4, 20 mg BID",71.4%
same,Baseline High AST: Normal %,"[4]; Week 4, 20 mg BID",28.6%
same,Baseline High AST: High %,"[4]; Week 4, 30 mg BID",50.0%
same,Baseline High AST: Normal %,"[4]; Week 4, 30 mg BID",50.0%
same,Baseline High AST: High %,"[4]; Week 16, 20 mg BID",20.0%
same,Baseline High AST: Normal %,"[4]; Week 16, 20 mg BID",80.0%
same,Baseline High AST: High %,"[4]; Week 16, 30 mg BID",41.7%
same,Baseline High AST: Normal %,"[4]; Week 16, 30 mg BID",58.3%
same,Baseline High AST: High %,"[4]; Week 24, 20 mg BID",40.0%
same,Baseline High AST: Normal %,"[4]; Week 24, 20 mg BID",60.0%
same,Baseline High AST: High %,"[4]; Week 24, 30 mg BID",25.0%
same,Baseline High AST: Normal %,"[4]; Week 24, 30 mg BID",75.0%
